Measured values taken from paper PMC8507260, “A2E-induced inflammation and angiogenesis in RPE cells in vitro are modulated by PPAR-α, -β/δ, -γ, and RXR antagonists and by norbixin” (Aging (Albany NY), 2021).

Columns and labels:
RXR = test: Endogenous RXR transactivation, luciferase reporter in porcine RPE cells; assay type: cell-based
Experimental: (§1) Pig eyes were obtained from a local slaughterhouse and transported to the laboratory in ice-cold Ringer solution. After removal of the anterior segment of the eye, the vitreous and neural retina was separated from the RPE and removed. The eyecup was washed twice with phosphate buffer saline (PBS), filled with trypsin (0.25% in PBS) and incubated at 37°C for 1.5 h. RPE cells were harvested by gently pipetting, centrifuged to remove trypsin and re-suspended in Dulbecco’s Modified Eagle Medium (DMEM) supplemented with 20% (v/v) foetal-calf serum (DMEM20%FCS) and 0.1% gentamycin. Cells were seeded into 60 mm diameter Petri dishes, cultured in an atmosphere of 5% CO2/95% air at 37°C, and supplied with fresh medium after 24 hours and 4 days in vitro. For experiments aimed at measuring mRNA or protein expression in RPE, cells were trypsinized after one week in culture and transferred to 24-well or 6-well plates at a density of 1.5 × 10^5 cells/cm^2 in DMEM2%FCS. Norbixin or agonists were added to the medium 24 h after seeding, and antagonists were added to the medium 24 h later. A2E treatment was performed during 19 h before cellular sample preparation. All the drugs used in these experiments were prepared as stock solutions in DMSO.
(§2) After one week in culture, cells were trypsinized and transferred to a 96-well plate at a density of 6 × 10^4 cells/cm^2 in DMEM2%FCS. The next day, cells were transfected using the Cignal Reporter Assay Kits for PPAR, RXR, AP-1 and NF-κB, according to the manufacturer’s specifications. To measure the specific activation of PPAR isoforms, cells were also co-transfected with PPAR-α, PPAR-β/δ or PPAR-γ expression vectors. Transfection was performed with Lipofectamine and Plus Reagent in serum-free medium. 3 h after the transfection, the medium was replaced and treatments with the molecules to assay were performed. Luciferase activity was measured the next day using the Dual-Luciferase Reporter Assay System. The measurements were performed with a luminometer (Infinite M1000 from Tecan, Mannedorf, Switzerland). Firefly: Renilla activity ratios were calculated for each condition and ratios from transcription factor-responsive reporter transfections were divided by ratios from negative control transfections to obtain relative luciferase unit, as described by the manufacturer. At least 3 independent transfections were performed in triplicate for each condition.

PPAR-α = target: T1, PPAR-α (Homo sapiens, UniProt Q07869); test: Competition binding to PPAR-α against [3H]GW7647 (Eurofins Cerep); conditions: competition with [3H]GW7647
T1 construct: Eurofins Cerep (contract laboratory that ran the assay)
T1 sequence (Q07869 1-468): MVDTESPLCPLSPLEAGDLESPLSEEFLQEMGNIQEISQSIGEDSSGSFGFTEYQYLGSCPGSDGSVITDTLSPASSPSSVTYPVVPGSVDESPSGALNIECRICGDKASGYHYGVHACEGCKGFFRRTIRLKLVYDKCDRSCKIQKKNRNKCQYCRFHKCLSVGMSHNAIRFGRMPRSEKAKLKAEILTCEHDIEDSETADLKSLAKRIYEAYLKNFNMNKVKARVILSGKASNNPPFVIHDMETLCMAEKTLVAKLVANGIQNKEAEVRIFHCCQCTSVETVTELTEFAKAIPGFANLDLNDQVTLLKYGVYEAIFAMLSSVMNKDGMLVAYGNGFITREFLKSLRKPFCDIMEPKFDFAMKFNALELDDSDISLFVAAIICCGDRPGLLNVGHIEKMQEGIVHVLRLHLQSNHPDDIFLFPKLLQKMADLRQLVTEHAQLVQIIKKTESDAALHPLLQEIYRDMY
From the text: The binding and activity of norbixin on PPARs remains controversial, thus, firstly, we performed competition experiments in vitro between norbixin and [^3H] GW7647, an agonist of PPAR-α, and [^3H] rosiglitazone, an agonist of PPAR-γ. […] Secondly, we tested whether norbixin could induce the transactivation of PPAR-α, -β/δ or -γ in the context of RPE cells in vitro by co-transfecting porcine RPE cells with a plasmid expressing each of the full-length PPAR isoforms and a plasmid expressing luciferase under the control of the PPAR response element. […] Then, we wanted to determine if norbixin could modulate the transactivation of PPAR isoforms induced by specific agonists.
Binding studies of A2E and norbixin to RXR-α and PPAR-α and γ were performed in vitro by an external laboratory (Eurofins Cerep, Celle L’Evescault, France) through competition experiments between A2E or norbixin and [^3H]9-cis-retinoic acid as the natural ligand of RXR-α, [^3H]GW7647 an agonist of PPAR-α and [^3H]Rosiglitazone an agonist of PPAR-γ.

ERK = ERK phosphorylation by western blot in primary porcine RPE cells; assay type: cell-based
Experimental: as §1, with “Norbixin or agonists were added to the medium 24 h after seeding, and antagonists were added to the medium 24 h later. A2E treatment was performed during 19 h before cellular sample preparation. All the drugs used in these experiments were prepared as stock solutions in DMSO.” left out
RPE samples were lysed in 20 mM Tris-HCl, 150 mM NaCl, 1 mM EDTA, 1% NP-40, pH 7.5 buffer containing a cocktail of protease and phosphatase inhibitors. […] The signal was developed using enhanced chemiluminescence reagents (ECL) prime detection kit, quantified by densitometry using Bio1D (Vilber Lourmat, Germany) and normalized by GAPDH levels. […]

NF-κB = NF-κB transactivation, luciferase reporter in porcine RPE cells; assay type: cell-based; conditions: A2E 20 μM, T007907 10 μM
Experimental: as §1, §2

Row | Compound | inhibition of RXR transactivation induced by A2E (RXR; A2E 20 μM, NBX 20 μM, HX531 5 μM) [%] | inhibition of RXR transactivation induced by HX630 (RXR; HX630 5 μM, NBX 20 μM) | transactivation of RXRs by the compound alone (RXR; HX630 5 μM, NBX 20 μM, vs DMSO control) | IC50 (PPAR-α) [µM] | Kd (PPAR-α) [µM] | effect on ERK phosphorylation induced by A2E (ERK; NBX 20 μM + A2E 30 μM) | inhibition of NF-κB transactivation induced by A2E (NF-κB; NBX 20 μM, HX531 5 μM) [%] | minimal concentration inducing transactivation of endogenous RXRs (RXR; dose-response, porcine RPE cells) [µM] | effect of the compound alone on ERK phosphorylation (ERK; A2E 30 μM vs DMSO control) | effect of the compound alone on NF-κB transactivation (NF-κB; vs DMSO control)
1 | CC(/C=C/C=C(C)/C=C/C(=O)O)=C\C=C\C=C(C)\C=C\C=C(C)\C=C\C(=O)O (stereo in doubt) [norbixin, 9’-cis-norbixin] | 49 | did not inhibit | did not induce the transactivation | 16.5 | 15 | not significantly inhibited | 73 | – | – | –
2 | CC(C=CC1=C(C)CCCC1(C)C)=CC=CC(C)=Cc1cc(C=CC=C(C)C=CC2=C(C)CCCC2(C)C)cc[n+]1CCO [A2E, N-retinylidene-N-retinylethanolamine] | – | – | – | 42.7 | 41 | – | – | 20 | induced the phosphorylation | induces the transactivation
